The series is described as follows: Hydrogen Peroxide Oxidation (LC-MS analysis of prochelator conversion). In kind it is physicochemical. The settings on record: 2 mM B-HAPI in water/DMSO, addition of 50 μl concentrated (30%) H2O2, room temperature, 1 h, data not shown. The method, then:
Hydrogen Peroxide Oxidation. A 40 mM stock solution of B-HAPI in DMSO was prepared. The reaction mixture (2 mM B-HAPI) was prepared by mixing […] of the B-HAPI stock solution with 450 μl of water and 450 μl of DMSO. The reaction was initiated by addition of 50 μl of concentrated (30%) H2O2 solution. The reaction mixture was incubated at room temperature for 1 h and analyzed by LC-MS.

The results in this text go back to US8551976B2, “Prochelators for inhibiting metal-promoted oxidative stress” (Duke University, priority 2011, dated 2013).

Consider `C/C(=N\NC(=O)c1ccncc1)c1ccccc1OCc1ccc(B2OC(C)(C)C(C)(C)O2)cc1` [B-HAPI, N′-(1-(2-(4-(4,4,5,5-tetramethyl-1,3,2-dioxaborolan-2-yl)benzyloxy)phenyl)ethylidene)isonitotinohdrazide], for which the “Hydrogen peroxide oxidation: products formed (LC-MS)” value was “Formation of the chelator (HAPI) and the intermediate of the self-immolative deprotection reaction was observed”.
